Experiments:
[1] = biological target: T1, Recombinant (1-346) HPK1 (h) (Homo sapiens, UniProt Q92918); test: HPK1 Human STE Kinase Enzymatic Radiometric Assay; format: biochemical; conditions: read-out: HPK1 IC50 nM Range*
T1 construct: Recombinant (1-346) HPK1 (h) is incubated with 8 mM MOPS pH 7.0
T1 sequence (Q92918 1-346): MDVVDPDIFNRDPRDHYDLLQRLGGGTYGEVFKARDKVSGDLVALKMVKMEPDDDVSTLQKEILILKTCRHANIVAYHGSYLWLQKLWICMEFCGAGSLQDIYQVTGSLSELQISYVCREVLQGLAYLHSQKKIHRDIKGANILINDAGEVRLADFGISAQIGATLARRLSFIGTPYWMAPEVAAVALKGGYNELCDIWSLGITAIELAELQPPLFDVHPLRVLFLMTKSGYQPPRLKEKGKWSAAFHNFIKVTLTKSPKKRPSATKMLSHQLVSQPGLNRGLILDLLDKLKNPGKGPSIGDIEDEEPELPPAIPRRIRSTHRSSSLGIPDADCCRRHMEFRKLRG
Description: A stock solution of 10 mM of test compound is prepared in DMSO. The compound plate was prepared by 3-fold and 9-point serial dilutions. […] The reaction is initiated by The addition of the Mg/ATP mix. After incubation for 40 minutes at RT, the reaction is stopped by the addition of phosphoric acid to a concentration of 0.5%.

[2] = biological target: Lck (h) (Homo sapiens, UniProt P06239); test: Lck Human  Kinase Enzymatic Radiometric Assay; format: biochemical; conditions: read-out: Lck IC50 nM Range*
Outline: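 Substrate 33P-incorporation measured by scintillation counting after spotting on P30 filtermat and phosphoric acid washes. Human Lck reacted 40 min at RT in 50 mM Tris pH 7.5 with 10 mM MgAcetate, [gamma-33P]-ATP, 250 uM Cdc2 peptide, 0.1 mM EGTA and 0.1 mM Na3VO4.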

Sequence of Lck (h) (P06239 whole entry): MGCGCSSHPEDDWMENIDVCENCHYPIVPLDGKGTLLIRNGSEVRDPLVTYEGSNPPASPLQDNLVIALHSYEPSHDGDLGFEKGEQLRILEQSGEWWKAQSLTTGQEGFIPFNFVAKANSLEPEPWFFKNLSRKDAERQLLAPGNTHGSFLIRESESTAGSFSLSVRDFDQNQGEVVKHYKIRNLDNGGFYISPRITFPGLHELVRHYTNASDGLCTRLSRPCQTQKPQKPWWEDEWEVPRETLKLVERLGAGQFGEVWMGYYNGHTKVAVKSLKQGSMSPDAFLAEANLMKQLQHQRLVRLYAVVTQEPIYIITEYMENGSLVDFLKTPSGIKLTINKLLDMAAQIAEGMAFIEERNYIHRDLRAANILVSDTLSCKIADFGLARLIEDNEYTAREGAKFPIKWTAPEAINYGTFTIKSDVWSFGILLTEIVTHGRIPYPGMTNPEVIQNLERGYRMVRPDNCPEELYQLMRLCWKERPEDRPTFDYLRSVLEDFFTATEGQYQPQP

Row | IC50 [1] [nM] | IC50 [2] [nM] | SMILES
1 | 0.1 to 10 | > 1000 | CC(C)N1CCCN(c2ccc(-c3cc(-c4ccc5c(c4)CCNC5=O)c(N)nc3F)cc2)CC1 [I-279, 6-(2-amino-6-fluoro-5-(4-(4-isopropyl-1,4-diazepan-1-yl)phenyl)pyridin-3-yl)-3,4-dihydroisoquinolin-1(2H)-one]
2 | 0.1 to 10 | > 1000 | Nc1nc(F)c(-c2ccc(N3CCN4CCCC4C3)cc2)cc1-c1ccc2c(c1)CCNC2=O (stereo not shown) [I-280, 6-(2-amino-6-fluoro-5-(4-(hexahydropyrrolo[1,2-a]pyrazin-2(1H)-yl)phenyl)pyridin-3-yl)-3,4-dihydroisoquinolin-1(2H)-one]
3 | 0.1 to 10 | > 1000 | Nc1nc(F)c(-c2ccc(N3CCCN4CCCC4C3)cc2)cc1-c1ccc2c(c1)CCNC2=O (stereo not shown) [I-281, 6-(2-amino-6-fluoro-5-(4-(hexahydro-1H-pyrrolo[1,2-a][1,4]diazepin-2(3H)-yl)phenyl)pyridin-3-yl)-3,4-dihydroisoquinolin-1(2H)-one]
4 | 0.1 to 10 | > 1000 | C[C@H]1CN(C)CCN1c1ccc(-c2cc(-c3ccc4c(c3)CCNC4=O)c(N)nc2F)cc1 [I-282, (S)-6-(2-amino-5-(4-(2,4-dimethylpiperazin-1-yl)phenyl)-6-fluoropyridin-3-yl)-3,4-dihydroisoquinolin-1(2H)-one]
5 | 0.1 to 10 | > 1000 | CN(C)C1CCN(c2ccc(-c3cc(-c4ccc5c(c4)CCNC5=O)c(N)nc3F)cc2)CC1 [I-283, 6-(2-amino-5-(4-(4-(dimethylamino)piperidin-1-yl)phenyl)-6-fluoropyridin-3-yl)-3,4-dihydroisoquinolin-1(2H)-one]
6 | 11 to 100 | > 1000 | C[C@@H]1CN(c2ccc(-c3cc(-c4ccc5c(c4)CCNC5=O)c(N)nc3F)cc2)C[C@H](C)N1C(=O)OC(C)(C)C [I-284, tert-butyl (2R,6S)-4-(4-(6-amino-2-fluoro-5-(1-oxo-1,2,3,4-tetrahydroisoquinolin-6-yl)pyridin-3-yl)phenyl)-2,6-dimethylpiperazine-1-carboxylate]
7 | 11 to 100 | > 1000 | CNCC1Cc2cc(-c3cc(-c4ccc(N5CCOCC5)cc4)c(F)nc3N)ccc2C(=O)N1 (stereo not shown) [I-285, 6-(2-amino-6-fluoro-5-(4-morpholinophenyl)pyridin-3-yl)-3-((methylamino)methyl)-3,4-dihydroisoquinolin-1(2H)-one]
8 | 0.1 to 10 | > 1000 | CNCC1Cc2cc(-c3cc(-c4ccc(N5CCN(C(C)C)CC5)cc4)c(F)nc3N)ccc2C(=O)N1 (stereo not shown) [I-286, 6-(2-amino-6-fluoro-5-(4-(4-isopropylpiperazin-1-yl)phenyl)pyridin-3-yl)-3-((methylamino)methyl)-3,4-dihydroisoquinolin-1(2H)-one]
9 | 0.1 to 10 | > 1000 | Nc1nc(F)c(-c2ccc3c(c2)CCNC3)cc1-c1cc2c(cc1F)C(=O)NCC2 [I-287, 2,2,2-trifluoroacetate]
10 | 0.1 to 10 | > 1000 | CC(C)N1CC(Oc2ccc(-c3cc(-c4ccc5c(c4)CCNC5=O)c(N)nc3F)cc2)C1 [I-288, 6-(2-amino-6-fluoro-5-(4-((1-isopropylazetidin-3-yl)oxy)phenyl)pyridin-3-yl)-3,4-dihydroisoquinolin-1(2H)-one]
11 | 11 to 100 | > 1000 | N#Cc1cc(-c2cc(-c3cc4c(cc3F)C(=O)NCC4)c(N)nc2F)ccc1OC1CCNCC1 [I-289, 5-(6-amino-2-fluoro-5-(7-fluoro-1-oxo-1,2,3,4-tetrahydroisoquinolin-6-yl)pyridin-3-yl)-2-(piperidin-4-yloxy)benzonitrile]
12 | 0.1 to 10 | 0.1 to 10 | CC(=O)N1CCC(Oc2ccc(-c3cc(-c4ccc5c(c4)CCNC5=O)c(N)nc3F)cc2F)CC1 [I-290, 6-(5-(4-((1-acetylpiperidin-4-yl)oxy)-3-fluorophenyl)-2-amino-6-fluoropyridin-3-yl)-3,4-dihydroisoquinolin-1(2H)-one]
13 | 0.1 to 10 | > 1000 | CC(C)N1CCC(Oc2ccc(-c3cc(-c4cc5c(cc4F)C(=O)NCC5)c(N)nc3F)cc2C#N)CC1 [I-292, 5-(6-amino-2-fluoro-5-(7-fluoro-1-oxo-1,2,3,4-tetrahydroisoquinolin-6-yl)pyridin-3-yl)-2-((1-isopropylpiperidin-4-yl)oxy)benzonitrile]
14 | 11 to 100 | > 1000 | N#Cc1cc(-c2cc(-c3cc4c(cc3F)C(=O)NCC4)c(N)nc2F)ccc1OC1CCN(CC(F)(F)F)CC1 [I-293, 5-(6-amino-2-fluoro-5-(7-fluoro-1-oxo-1,2,3,4-tetrahydroisoquinolin-6-yl)pyridin-3-yl)-2-((1-(2,2,2-trifluoroethyl)piperidin-4-yl)oxy)benzonitrile]
15 | 0.1 to 10 | > 1000 | CC(C)N1CC=C(c2ccc(-c3cc(-c4cc5c(cc4F)C(=O)NCC5)c(N)nc3F)cc2)CC1 [I-295, 6-(2-amino-6-fluoro-5-(4-(1-isopropyl-1,2,3,6-tetrahydropyridin-4-yl)phenyl)pyridin-3-yl)-7-fluoro-3,4-dihydroisoquinolin-1(2H)-one]
16 | 0.1 to 10 | > 1000 | Nc1nc(F)c(-c2ccc(C3=CCN(CC4CC4)CC3)cc2)cc1-c1cc2c(cc1F)C(=O)NCC2 [I-297, 6-(2-amino-5-(4-(1-(cyclopropylmethyl)-1,2,3,6-tetrahydropyridin-4-yl)phenyl)-6-fluoropyridin-3-yl)-7-fluoro-3,4-dihydroisoquinolin-1(2H)-one]
17 | 11 to 100 | > 1000 | CNCC1Cc2cc(-c3cc(-c4ccc(Cl)cc4)c(F)nc3N)ccc2C(=O)N1 (stereo not shown) [I-298, 6-(2-amino-5-(4-chlorophenyl)-6-fluoropyridin-3-yl)-3-((methylamino)methyl)-3,4-dihydroisoquinolin-1(2H)-one]
18 | 0.1 to 10 | > 1000 | CC(C)N1CCc2cc(-c3cc(-c4cc5c(cc4F)C(=O)NCC5)c(N)nc3F)ccc2C1 [I-299, 6-(2-amino-6-fluoro-5-(2-isopropyl-1,2,3,4-tetrahydroisoquinolin-6-yl)pyridin-3-yl)-7-fluoro-3,4-dihydroisoquinolin-1(2H)-one]
19 | 0.1 to 10 | > 1000 | COCCN1CCc2cc(-c3cc(-c4cc5c(cc4F)C(=O)NCC5)c(N)nc3F)ccc2C1 [I-300, 6-(2-amino-6-fluoro-5-(2-(2-methoxyethyl)-1,2,3,4-tetrahydroisoquinolin-6-yl)pyridin-3-yl)-7-fluoro-3,4-dihydroisoquinolin-1(2H)-one]
20 | 0.1 to 10 | > 1000 | CC(C)N1C[C@H]2C[C@@]2(c2ccc(-c3cc(-c4cc(F)c5c(c4)CCNC5=O)c(N)nc3F)cc2)C1 [I-301, 6-(2-amino-6-fluoro-5-(4-((1R,5S)-3-isopropyl-3-azabicyclo[3.1.0]hexan-1-yl)phenyl)pyridin-3-yl)-8-fluoro-3,4-dihydroisoquinolin-1(2H)-one]
21 | 0.1 to 10 | 101 to 1000 | CC(C)N1CCC(c2ccc(-c3cc(-c4cc(F)c5c(c4)CCNC5=O)c(N)nc3F)cc2)CC1 [I-302, 6-(2-amino-6-fluoro-5-(4-(1-isopropylpiperidin-4-yl)phenyl)pyridin-3-yl)-8-fluoro-3,4-dihydroisoquinolin-1(2H)-one]
22 | 11 to 100 | > 1000 | COCCN1CCC(Oc2ccc(-c3cc(-c4cc5c(cc4F)C(=O)NCC5)c(N)nc3F)cc2C#N)CC1 [I-303, 5-(6-amino-2-fluoro-5-(7-fluoro-1-oxo-1,2,3,4-tetrahydroisoquinolin-6-yl)pyridin-3-yl)-2-((1-(2-methoxyethyl)piperidin-4-yl)oxy)benzonitrile]
23 | 0.1 to 10 | > 1000 | COc1cc(OC2CCN(C(C)=O)CC2)ccc1-c1cc(-c2ccc3c(c2)CCNC3=O)c(N)nc1F [I-304, 6-(5-(4-((1-acetylpiperidin-4-yl)oxy)-2-methoxyphenyl)-2-amino-6-fluoropyridin-3-yl)-3,4-dihydroisoquinolin-1(2H)-one]
24 | 0.1 to 10 | > 1000 | COc1cc(-c2cc(-c3ccc4c(c3)CCNC4=O)c(N)nc2F)ccc1OC1CCN(C(C)=O)CC1 [I-305, 6-(5-(4-((1-acetylpiperidin-4-yl)oxy)-3-methoxyphenyl)-2-amino-6-fluoropyridin-3-yl)-3,4-dihydroisoquinolin-1(2H)-one]

Row | SMILES | IC50 [1] [nM] | IC50 [2] [nM]
25 | COC1(c2ccc(-c3cc(-c4ccc5c(c4)CCNC5=O)c(N)nc3F)cc2)CCN(C(C)C)CC1 [I-294, 6-(2-amino-6-fluoro-5-(4-(1-isopropyl-4-methoxypiperidin-4-yl)phenyl)pyridin-3-yl)-3,4-dihydroisoquinolin-1(2H)-one] | 0.1 to 10 | > 1000
26 | CCN1CC=C(c2ccc(-c3cc(-c4cc5c(cc4F)C(=O)NCC5)c(N)nc3F)cc2)CC1 [I-296, 6-(2-amino-5-(4-(1-ethyl-1,2,3,6-tetrahydropyridin-4-yl)phenyl)-6-fluoropyridin-3-yl)-7-fluoro-3,4-dihydroisoquinolin-1(2H)-one] | 0.1 to 10 | > 1000
